Test results reported in PMC10657444, “Design and evaluation of tadpole-like conformational antimicrobial peptides” (Communications Biology, 2023).
Converted amounts (≈) assume the structure as drawn. “And” between values parts separate entries of the source, which are not always exact repeats. Equal entries are not always repeated. Where two headings read alike, the source gives them in different places. Values belong to the molecule of their own block, whether it stands above or below them. Residues, ends and D or L forms follow the SMILES beside them.

How the values were obtained:
E. coli ATCC 25922 = format: cell-based, Escherichia coli
Description: (§1) Bacteria were cultivated in Luria-Bertani (LB) broth.

E. coli S = format: cell-based, Escherichia coli
Description: as §1

HEK293T cells = test: MTT cytotoxicity assay; format: cell-based, human; conditions: for percent cell viability: HEK293T
Protocol: (§2) To determine the cytotoxicity of the peptides, we used the MTT (3-(4,5)-dimethylthiahiazo (-z-y1)-3,5-di-phenytetrazoliumromide) dye reduction assay against HEK293T cells. In brief, the 100 μL of cells in 96-well plate were incubated for 24 h at 37 °C, 5% CO2, and then peptide solutions (concentrations ranging from 100 to 0.39 μM) were added and further incubated for 72 h. MTT solution (5 mg/mL) was added and further incubated for 4 h. After incubation, the precipitated MTT formazan crystal was dissolved by addition of dimethyl sulfoxide (DMSO). […]

MTT cytotoxicity assay = format: cell-based, human; conditions: human; for viability at 72 h, 0.39 µM / viability at 72 h, 0.78 µM / viability at 72 h, 1.57 µM / viability at 72 h, 3.13 µM / viability at 72 h, 6.25 µM / viability at 72 h, 12.5 µM / viability at 72 h, 25 µM / viability at 72 h, 50 µM / viability at 72 h, 100 µM: HEK293T cells
Protocol: as §2

A. baumannii 1337 = format: cell-based, Acinetobacter baumannii
Description: as §1

A. baumannii 1318 = format: cell-based, Acinetobacter baumannii
Description: as §1

sheep red blood cells = test: Hemolysis assay
Protocol: To evaluate the hemolysis effects of peptides, red blood hemolysis was performed as described with minimum modifications. Sterile defibrated sheep blood was purchased from Guangzhou Hongquan Biotechnology Co., LTD. Blood cells were adjusted to 2 × 10^9 cells/mL in phosphate-buffered saline (PBS, pH 7.4). In total, 98 μL sheep red blood cell suspension was incubated with 2 μL of peptides at different concentrations ranging from 3.13 to 100 µM. After incubation for 1 h at 37 °C, the cells were centrifuged and the absorbance of the supernatant was measured at 450 nm. The value for “zero hemolysis” was determined using sterile PBS, while 100% hemolysis was established using 1.5% (v/v) Triton X-100. Hemolysis of testing sample was calculated as the percentage of Triton X-100-induced hemolysis.

K. pneumoniae 3026 = format: cell-based, Klebsiella pneumoniae
Description: as §1

[1] = system: K. pneumoniae ATCC 700603; format: cell-based, Klebsiella pneumoniae
Description: as §1

MRSA 3393 = format: cell-based, Staphylococcus aureus
Description: as §1

MRSA USA 300 = format: cell-based, Staphylococcus aureus
Description: as §1

MRSA ATCC 43300 = format: cell-based, Staphylococcus aureus
Description: as §1

[2] = system: Gram-negative bacterial strains; format: cell-based
Description: as §1

MRSA = format: cell-based, Staphylococcus aureus
Description: as §1

[3] = OD450, cytotoxicity (Fig 2a), replicates
[4] = HEK293T, 0.78 µM, read-out: OD450, cytotoxicity (Fig 2a), replicates
[5] = HEK293T, 12.5 µM, read-out: OD450, cytotoxicity (Fig 2a), replicates

MIC Gram- E. coli ATCC 25922 (E. coli ATCC 25922): 6.25 µM (≈ 9.05 µg/mL)
MIC Gram- E. coli S (E. coli S): 12.5 µM (≈ 18.1 µg/mL)
MIC Gram- A. b 1337 (A. baumannii 1337): 12.5 µM (≈ 18.1 µg/mL)
MIC Gram- A. b 1318 (A. baumannii 1318): 12.5 µM (≈ 18.1 µg/mL)
MIC Gram- K. p 3026 (K. pneumoniae 3026): 25 µM (≈ 36.2 µg/mL)
MIC Gram- K. p ATCC 700603 [1]: 12.5 µM (≈ 18.1 µg/mL)
MIC Gram+ MRSA 3393 (MRSA 3393): 1.57 µM (≈ 2.27 µg/mL)
MIC Gram+ MRSA USA 300 (MRSA USA 300): 1.57 µM (≈ 2.27 µg/mL)
MIC Gram+ MRSA ATCC 43300 (MRSA ATCC 43300): 1.57 µM (≈ 2.27 µg/mL)
MIC Gram+ MRSA ATCC 43300 (MRSA ATCC 43300; ATCC 43300): 1.57 µM (≈ 2.27 µg/mL)
MICs against the tested Gram-negative bacterial strains [2]: 6.25 to 25 µM
SMILES: CC[C@H](C)[C@H](NC(=O)[C@H](CCCNC(=N)N)NC(=O)[C@H](CCCNC(=N)N)NC(=O)[C@H](CC(C)C)NC(=O)[C@H](Cc1ccccc1)NC(=O)[C@H](Cc1ccccc1)NC(=O)[C@H](Cc1ccccc1)NC(=O)[C@@H](N)Cc1ccccc1)C(=O)N[C@@H](Cc1ccccc1)C(=O)N[C@@H](CCCNC(=N)N)C(N)=O [F-SHf(R^5)-R] (H-FFFFLRRIFR-NH2; N-terminus assumed)
toxicity / cytotoxicity against HEK293T cells (in words) (HEK293T cells): high toxicity
IC50 at 72 h (MTT cytotoxicity assay): 0.2 µM
viability at 72 h, 0.39 µM (MTT cytotoxicity assay; [3]): 35.2%
viability at 72 h, 0.78 µM (MTT cytotoxicity assay; [3]): 26.2%
viability at 72 h, 1.57 µM (MTT cytotoxicity assay; [3]): 12.3%
viability at 72 h, 3.13 µM (MTT cytotoxicity assay; [3]): 9.86%
viability at 72 h, 6.25 µM (MTT cytotoxicity assay; [3]): 4.46%
viability at 72 h, 12.5 µM (MTT cytotoxicity assay; [3]): 3.13%
viability at 72 h, 25 µM (MTT cytotoxicity assay; [3]): 3.84%
viability at 72 h, 50 µM (MTT cytotoxicity assay; [3]): 2.63%
viability at 72 h, 100 µM (MTT cytotoxicity assay; [3]): 1.58%
HC10 (concentration inducing 10% hemolysis) (sheep red blood cells; red cells of sheep, 1 h): 36.5 µM

SMILES: CC[C@H](C)[C@H](NC(=O)[C@H](CCCNC(=N)N)NC(=O)[C@H](CO)NC(=O)[C@H](CC(C)C)NC(=O)[C@H](Cc1ccccc1)NC(=O)[C@H](Cc1ccccc1)NC(=O)[C@@H](N)Cc1ccccc1)C(=O)N[C@@H](Cc1ccccc1)C(N)=O [SHf] (H-FFFLSRIF-NH2; N-terminus assumed)
percent cell viability (HEK293T cells; 0.39 µM): 94.1313 and 97.2791
percent cell viability (HEK293T cells; 0.78 µM): 95.9839 and 98.206
percent cell viability (HEK293T cells; 1.57 µM): 94.1313 and 96.7238
percent cell viability (HEK293T cells; 3.13 µM): 98.2056
percent cell viability (HEK293T cells; 6.25 µM): 98.9467 and 92.2795
percent cell viability (HEK293T cells; 12.5 µM): 99.6874 and 99.3163
percent cell viability (HEK293T cells; 25 µM): 98.9463 and 99.3171
percent cell viability (HEK293T cells; 50 µM): 91.54 and 92.6507
percent cell viability (HEK293T cells; 100 µM): 21.5425 and 18.5796
viability at 72 h, 0.39 µM (MTT cytotoxicity assay; HEK293T, 0.39 µM, read-out: OD450, cytotoxicity (Fig 2a), replicates): 99%
viability at 72 h, 0.78 µM (MTT cytotoxicity assay; [4]): 90.4%
viability at 72 h, 1.57 µM (MTT cytotoxicity assay; HEK293T, 1.57 µM, read-out: OD450, cytotoxicity (Fig 2a), replicates): 97.8%
viability at 72 h, 3.13 µM (MTT cytotoxicity assay; HEK293T, 3.13 µM, read-out: OD450, cytotoxicity (Fig 2a), replicates): 100%
viability at 72 h, 6.25 µM (MTT cytotoxicity assay; HEK293T, 6.25 µM, read-out: OD450, cytotoxicity (Fig 2a), replicates): 92.7%
viability at 72 h, 12.5 µM (MTT cytotoxicity assay; [5]): 93.4%
viability at 72 h, 25 µM (MTT cytotoxicity assay; HEK293T, 25 µM, read-out: OD450, cytotoxicity (Fig 2a), replicates): 94.9%
viability at 72 h, 50 µM (MTT cytotoxicity assay; HEK293T, 50 µM, read-out: OD450, cytotoxicity (Fig 2a), replicates): 92.3%
viability at 72 h, 100 µM (MTT cytotoxicity assay; HEK293T, 100 µM, read-out: OD450, cytotoxicity (Fig 2a), replicates): 27.1%
IC50 at 72 h (MTT cytotoxicity assay; HEK293T, MTT, 72 h, read-out: IC50, mammalian cell cytotoxicity): 59 µM
OD450, hemolysis (Fig 2b), replicates (sheep red blood cells; 3.13 µM): 0.01725 and 0.01686 and 0.01568 and 0.01738 and 0.01699 and 0.0158
OD450, hemolysis (Fig 2b), replicates (sheep red blood cells; 6.25 µM): 0.01882 and 0.01529 and 0.01725 and 0.01896 and 0.01541 and 0.01738
OD450, hemolysis (Fig 2b), replicates (sheep red blood cells; 12.5 µM): 0.01725 and 0.01803 and 0.01764 and 0.01738 and 0.01817 and 0.01777
OD450, hemolysis (Fig 2b), replicates (sheep red blood cells; 25 µM): 0.01921 (2×) and 0.01764 and 0.01936 (2×) and 0.01777
OD450, hemolysis (Fig 2b), replicates (sheep red blood cells; 50 µM): 0.02038 and 0.02156 and 0.01921 and 0.02054 and 0.02173 and 0.01936
OD450, hemolysis (Fig 2b), replicates (sheep red blood cells; 100 µM): 0.01999 and 0.02234 and 0.02195 and 0.02014 and 0.02252 and 0.02212
hemolytic activity (in words) (sheep red blood cells; sheep red blood cells, 3.13–100 μM): did not present hemolytic activity
HC10 (concentration inducing 10% hemolysis) (sheep red blood cells; sheep red blood cells, 1 h at 37 °C): > 100.0 µM
MICs against MRSA (MRSA; range over the MRSA strains): 50 to 100 µM
MICs against the tested Gram-negative bacterial strains ([2]; range over the strains): > 100 µM

SMILES: CC[C@H](C)[C@H](NC(=O)[C@H](CCCNC(=N)N)NC(=O)[C@H](CCCNC(=N)N)NC(=O)[C@H](CC(C)C)NC(=O)[C@H](Cc1ccccc1)NC(=O)[C@H](CCCNC(=N)N)NC(=O)[C@@H](N)CCCNC(=N)N)C(=O)N[C@@H](Cc1ccccc1)C(=O)N[C@@H](Cc1ccccc1)C(=O)N[C@@H](Cc1ccccc1)C(=O)N[C@@H](Cc1ccccc1)C(N)=O [HT3] (H-RRFLRRIFFFF-NH2; N-terminus assumed)
MIC Gram- E. coli ATCC 25922 (E. coli ATCC 25922): 6.25 µM (≈ 10 µg/mL)
MIC Gram- E. coli S (E. coli S): 25 µM (≈ 40.1 µg/mL)
IC50 at 72 h (MTT cytotoxicity assay): 49 µM
viability at 72 h, 0.78 µM (MTT cytotoxicity assay; [4]): 95.8%
viability at 72 h, 12.5 µM (MTT cytotoxicity assay; [5]): 94.4%
viability at 72 h, 0.39 µM (MTT cytotoxicity assay; [3]): 94%
viability at 72 h, 0.78 µM (MTT cytotoxicity assay; [3]): 98.7%
viability at 72 h, 1.57 µM (MTT cytotoxicity assay; [3]): 96.4%
viability at 72 h, 3.13 µM (MTT cytotoxicity assay; [3]): 97.8%
viability at 72 h, 6.25 µM (MTT cytotoxicity assay; [3]): 94.9%
viability at 72 h, 12.5 µM (MTT cytotoxicity assay; [3]): 99.5%
viability at 72 h, 25 µM (MTT cytotoxicity assay; [3]): 91.4%
viability at 72 h, 50 µM (MTT cytotoxicity assay; [3]): 59.2%
viability at 72 h, 100 µM (MTT cytotoxicity assay; [3]): 24.2%
MIC Gram- A. b 1337 (A. baumannii 1337): 6.25 µM (≈ 10 µg/mL)
MIC Gram- A. b 1318 (A. baumannii 1318): 6.25 µM (≈ 10 µg/mL)
HC10 (concentration inducing 10% hemolysis) (sheep red blood cells; red cells of sheep, 1 h): > 100.0 µM
MIC Gram- K. p 3026 (K. pneumoniae 3026): 6.25 µM (≈ 10 µg/mL)
MIC Gram- K. p ATCC 700603 [1]: 6.25 µM (≈ 10 µg/mL)
MIC Gram+ MRSA 3393 (MRSA 3393; 3393): 3.13 µM (≈ 5.02 µg/mL)
MIC Gram+ MRSA USA 300 (MRSA USA 300): 3.13 µM (≈ 5.02 µg/mL)
MICs against Gram-positive bacterial strains (MRSA): 1.57 to 3.13 µM
MIC Gram+ MRSA ATCC 43300 (MRSA ATCC 43300; ATCC 43300): 1.57 µM (≈ 2.52 µg/mL)
MICs against Gram-negative bacterial strains, such as A. baumannii and Klebsiella pneumoniae [2]: 6.25 µM
